Data published in patent US20220023273A1, “METHODS FOR TREATING SYMPTOMS AND DISORDERS ASSOCIATED WITH LYSOSOMAL STORAGE DISEASES” (GENZYME CORPORATION, priority 2019, published 2022).
Like-named read-outs stand apart in the source and are kept apart here.

Tests used:
Format in all cases: in vivo, human
[1] = GD3 clinical study: safety and tolerability; settings: GD3, 15 mg/day oral + imiglucerase
Experimental: (§1) During the study patients were evaluated for safety and tolerability, CSF and plasma biomarkers (glucosylceramide, GL-1; glucosylsphingosine, lyso-GL1), pharmacokinetics, markers for systemic disease (spleen and liver volume measured by magnetic resonance imaging (MRI), platelet count, hemoglobin levels), indicia of interstitial lung disease (high resolution pulmonary computed tomography (CT)), and horizontal saccadic eye movement.

[2] = tested on: adult patients with Gaucher disease Type 3; assay: GD3 clinical study: markers for systemic disease (spleen volume, platelet count, hemoglobin); settings: GD3, 15 mg/day oral + imiglucerase
Experimental: as §1
Individual patient data for platelet counts are shown in the table below (shown as 10^9 platelets/L): […]

[3] = Phase 1 Study 2: ascending repeated-dose pharmacokinetics
[4] = tested on: adult male Fabry patients; assay: Fabry clinical study: SF-36 bodily pain and abdominal pain assessment; settings: Fabry males; for patients with decreased severity of abdominal pain / patients with improved overall bodily pain scores (SF-36) / patients with reduced number of days with gastrointestinal pain: 15 mg/day oral
Text: (§2) Each sample was scored independently by 3 pathologists for the presence of GL-3 inclusions on a four-point scale, and rated as 0 (no/trace), 1 (mild), 2 (moderate), or 3 (severe) according to Eng et al., N. Engl. J. Med. 345:9-16 (2001). A single score per patient per time point was derived by taking the score rated by the majority of the three pathologists. If a majority score could not be derived, then the median score was used (resulting in some fractional scores). Plasma samples were also analyzed for GL-3, lyso-GL-3, GL-1 and GM3 at baseline and weeks 12, 26, 52 and 156. Pain scores and abdominal symptoms were analyzed at baseline and weeks 12, 26, 52, 104 and 156 using the SF-36 scoring protocol.
Patients were assessed using the Short Form-36 (SF-36) questionnaire on numerous visits from baseline to week 156. This is a 36-item questionnaire used to measure 8 various aspects of health (vitality, physical functioning, bodily pain, general health perceptions, physical role functioning, emotional role functioning, social role functioning and mental health). The score for each of the eight aspects ranges from 0 (maximum disability) to 100 (no disability), and thus, higher scores indicate good health condition. In addition, gastrointestinal symptoms, including abdominal pain, abdominal distention, and bowl movements, were assessed using a modified version of the inflammatory bowel severity scoring system. Particular questions asked as part of these assessments included: (1) whether the patient suffered abdominal pain within the last ten days, (2) what was the severity of abdominal pain suffered in the last ten days using a 0 (no pain) to 100 (very severe pain) scale, and (3) on how many days within the last ten days did the patient have abdominal pain.

[5] = tested on: GL-3 inclusions in skin cells; assay: Fabry clinical study: skin GL-3 inclusion score by light microscopy; settings: Fabry males
Experimental: A three-year open-label investigation of Compound 2 in young classic Fabry disease patients was conducted in order to evaluate the long-term safety, pharmacodynamics and exploratory efficacy of Compound 2 in adult male Fabry patients. Eleven subjects enrolled in the study, and seven subjects completed all aspects of the study. All subjects were males diagnosed with classic Fabry disease confirmed by genotype and residual alpha-galactosidase activity below detection levels (9 of the 11 had nonsense mutation in the GLA gene). All subjects had lyso-GL3 levels in plasma of at least 65 ng/mL and had no prior Fabry disease-specific treatment. The median age of subject was 24 years (range 19-37).
as §2

[6] = GD3 clinical study: pharmacokinetics in plasma and CSF; settings: for AUC: human, plasma, po, Day 1 (N = 5), read-out: AUC0_24 (mean ± SD)
Text: Patients 18 years of age or older with a clinical diagnosis of GD3 and documented deficiency of acid beta-glucosidase activity having received treatment with ERT for at least 3 years and with imiglucerase (Cerezyme) at a stable monthly dose for at least 6 months prior to enrollment were included in the study. Patients must have reached the following GD therapeutic goals: hemoglobin level of ≥11.0 g/dL for females and ≥12.0 g/dL for males; platelet count ≥100 000/mm3; spleen volume <10 multiples of normal (MN), or total splenectomy (provided the splenectomy occurred >3 years prior to randomization); liver volume <1.5 MN; and no bone crisis and free of symptomatic bone disease such as bone pain attributable to osteonecrosis and/or pathological fractures within the last year. Patients must have GD3 featuring oculomotor apraxia (supranuclear gaze palsy) characterized by a horizontal saccade abnormality.
as §1
A second interim analysis was performed when the first 6 patients had reached 52-weeks of treatment, as described above in section (A). This analysis included Patients 1-5 as described in section (A), as well as new Patient 6. All six patients had L444P (1448T/C) homozygous Gaucher phenotype.

[7] = healthy adults, 5 mg once daily, Day 14
[8] = repeated once-daily doses from 5-20 mg

Compound: CC(C)(NC(=O)O[C@@H]1CN2CCC1CC2)c1csc(-c2ccc(F)cc2)n1 [Compound 2, (S)-quinuclidin-3-yl (2-(2-(4-fluorophenyl)thiazol-4-yl)propan-2-yl)carbamate]
- treatment-emergent adverse events ([1]; 26 weeks, all 5 patients): no serious or lasting treatment-emergent adverse events
- total treatment-emergent adverse events reported ([1]; 52 weeks, six patients): 30
- severity of treatment-emergent adverse events ([1]; 52 weeks, six patients, none considered related to treatment): mild or moderate in severity
- systemic deterioration ([2]; 26 weeks, all patients): absence of systemic deterioration
- changes in hemoglobin levels ([2]; 26 weeks): no clinically meaningful changes
- patients with reductions in splenic volume of 10% or more ([2]; 26 weeks): Two
- changes in hemoglobin levels ([2]; Week 52): no clinically meaningful changes
- patients with spleen volume reductions ([2]; Week 52): two
- AUC0-24, Geometric mean (CV) [3, 7]: 632 (19) ng · h/mL
- AUC0-24, Mean (SD) [3, 7]: 642 (121) ng · h/mL
- tmax, median (range) ([3]; healthy adults, 10 mg once daily, Day 1): 3.00 (2.00-5.00) h
- tmax, median (range) ([3]; healthy adults, 20 mg once daily, Day 14): 3.00 (2.00-8.00) h
- Ctrough values ([3]; healthy adults, 5, 10, or 20 mg once daily for 14 days): reached a plateau after Day 5
- effect of age and gender on accumulation [3, 8]: neither age nor gender affected accumulation
- time to steady state [3, 8]: ≤ 5 days
- abdominal pain and discomfort ([4]; 15 mg/day): consistently reduces abdominal pain and discomfort
- patients with decreased severity of abdominal pain ([4]; week 26, patients with gastrointestinal pain at baseline): four out of five
- patients with improved overall bodily pain scores (SF-36) ([4]; week 26): Seven of nine
- patients with reduced number of days with gastrointestinal pain ([4]; week 26): five of five
- patients with decreased severity of abdominal pain ([4]; week 156, patients with gastrointestinal pain at baseline): four out of four
- patients with improved overall bodily pain scores (SF-36) ([4]; week 156): three of six
- patients with reduced number of days with gastrointestinal pain ([4]; week 156): three of four
- levels of GL-3 inclusions in the skin ([5]; 15 mg/day): consistently reduces the levels of GL-3 inclusions in the skin
- patients with a 1-point reduction in skin GL-3 score ([5]; by week 156, 15 mg/day oral): five
- patients with complete clearance of GL-3 inclusions ([5]; by week 156, 15 mg/day oral): two
- patients with no change in skin GL-3 score ([5]; by week 156, 15 mg/day oral): one
- Compound 2 in CSF, concentration 2-4 hours post dose (mean) ([6]; Day 1 (N = 6), GD3, 15 mg/day oral + imiglucerase): <LLOQ
- time at which steady state concentration is reached in plasma and CSF ([6]; GD3, 15 mg/day oral + imiglucerase): ≤ 4 Week
- Patient 5: lower concentrations of Compound 2 in plasma and CSF ([6]; Week 26, believed due to compliance or dosing errors): about 50%
- Patient 5: concentrations of Compound 2 in plasma and CSF ([6]; Week 52, believed due to compliance or dosing errors): undetectable
- crossing of the blood-brain barrier ([6]; all patients, GD3, 15 mg/day oral + imiglucerase): effectively cross the blood-brain barrier
- AUC ([6]; 26-week interim, GD3, 15 mg/day oral + imiglucerase): 715 ± 225 ng·h/mL
- AUC ([6]; 52-week interim, GD3, 15 mg/day oral + imiglucerase): 729 ± 205 ng·h/mL
